Laboratory results as given in ChEMBL document CHEMBL3991601, “The target landscape of clinical kinase drugs” (Science, 2017).
Active and inactive are the calls of the source. Rule as the data show it, for most assays here: actives have a measured Kd and inactives only a lower limit.

Columns and labels:
[1] = target: T1, Interleukin-1 receptor-associated kinase 3 (Homo sapiens, UniProt Q9Y616)
T1 sequence (Q9Y616 whole entry): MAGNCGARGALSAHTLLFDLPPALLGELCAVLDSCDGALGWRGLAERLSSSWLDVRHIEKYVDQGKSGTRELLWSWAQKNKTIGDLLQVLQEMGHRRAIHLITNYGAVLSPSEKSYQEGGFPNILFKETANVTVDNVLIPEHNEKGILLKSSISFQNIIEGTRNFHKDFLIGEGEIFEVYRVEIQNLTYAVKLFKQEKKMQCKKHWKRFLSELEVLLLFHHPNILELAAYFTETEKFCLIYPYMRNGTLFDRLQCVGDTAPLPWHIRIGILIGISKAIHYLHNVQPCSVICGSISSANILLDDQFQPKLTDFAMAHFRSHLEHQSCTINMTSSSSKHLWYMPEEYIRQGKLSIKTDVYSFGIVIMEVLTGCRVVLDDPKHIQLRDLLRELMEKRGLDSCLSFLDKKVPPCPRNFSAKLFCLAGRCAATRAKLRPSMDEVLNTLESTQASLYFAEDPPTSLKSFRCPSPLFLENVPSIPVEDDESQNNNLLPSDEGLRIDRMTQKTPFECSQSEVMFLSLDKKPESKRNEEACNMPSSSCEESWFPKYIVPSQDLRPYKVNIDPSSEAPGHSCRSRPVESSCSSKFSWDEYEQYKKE

[2] = target: T2, Serine/threonine-protein kinase ICK (Homo sapiens, UniProt Q9UPZ9)
T2 sequence (Q9UPZ9 whole entry): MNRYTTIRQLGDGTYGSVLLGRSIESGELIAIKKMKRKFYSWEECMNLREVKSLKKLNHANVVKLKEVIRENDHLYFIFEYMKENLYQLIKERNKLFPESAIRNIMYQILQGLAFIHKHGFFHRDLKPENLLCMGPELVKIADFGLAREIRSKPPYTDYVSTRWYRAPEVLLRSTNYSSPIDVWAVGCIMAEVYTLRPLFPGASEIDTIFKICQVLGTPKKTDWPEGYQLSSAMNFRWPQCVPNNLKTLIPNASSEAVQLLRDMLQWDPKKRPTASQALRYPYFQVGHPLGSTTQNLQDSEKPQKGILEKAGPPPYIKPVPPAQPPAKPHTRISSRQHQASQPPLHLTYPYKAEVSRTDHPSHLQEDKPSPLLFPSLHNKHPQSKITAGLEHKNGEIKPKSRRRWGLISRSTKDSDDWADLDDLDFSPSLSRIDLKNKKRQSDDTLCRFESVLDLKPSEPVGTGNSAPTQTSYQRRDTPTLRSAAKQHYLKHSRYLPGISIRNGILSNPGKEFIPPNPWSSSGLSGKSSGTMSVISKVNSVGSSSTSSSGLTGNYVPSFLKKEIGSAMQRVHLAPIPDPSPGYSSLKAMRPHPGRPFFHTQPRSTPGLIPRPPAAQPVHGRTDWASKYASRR

[3] = target: Tyrosine-protein kinase ABL2 (Homo sapiens, UniProt P42684)
Sequence of Tyrosine-protein kinase ABL2 (P42684 whole entry): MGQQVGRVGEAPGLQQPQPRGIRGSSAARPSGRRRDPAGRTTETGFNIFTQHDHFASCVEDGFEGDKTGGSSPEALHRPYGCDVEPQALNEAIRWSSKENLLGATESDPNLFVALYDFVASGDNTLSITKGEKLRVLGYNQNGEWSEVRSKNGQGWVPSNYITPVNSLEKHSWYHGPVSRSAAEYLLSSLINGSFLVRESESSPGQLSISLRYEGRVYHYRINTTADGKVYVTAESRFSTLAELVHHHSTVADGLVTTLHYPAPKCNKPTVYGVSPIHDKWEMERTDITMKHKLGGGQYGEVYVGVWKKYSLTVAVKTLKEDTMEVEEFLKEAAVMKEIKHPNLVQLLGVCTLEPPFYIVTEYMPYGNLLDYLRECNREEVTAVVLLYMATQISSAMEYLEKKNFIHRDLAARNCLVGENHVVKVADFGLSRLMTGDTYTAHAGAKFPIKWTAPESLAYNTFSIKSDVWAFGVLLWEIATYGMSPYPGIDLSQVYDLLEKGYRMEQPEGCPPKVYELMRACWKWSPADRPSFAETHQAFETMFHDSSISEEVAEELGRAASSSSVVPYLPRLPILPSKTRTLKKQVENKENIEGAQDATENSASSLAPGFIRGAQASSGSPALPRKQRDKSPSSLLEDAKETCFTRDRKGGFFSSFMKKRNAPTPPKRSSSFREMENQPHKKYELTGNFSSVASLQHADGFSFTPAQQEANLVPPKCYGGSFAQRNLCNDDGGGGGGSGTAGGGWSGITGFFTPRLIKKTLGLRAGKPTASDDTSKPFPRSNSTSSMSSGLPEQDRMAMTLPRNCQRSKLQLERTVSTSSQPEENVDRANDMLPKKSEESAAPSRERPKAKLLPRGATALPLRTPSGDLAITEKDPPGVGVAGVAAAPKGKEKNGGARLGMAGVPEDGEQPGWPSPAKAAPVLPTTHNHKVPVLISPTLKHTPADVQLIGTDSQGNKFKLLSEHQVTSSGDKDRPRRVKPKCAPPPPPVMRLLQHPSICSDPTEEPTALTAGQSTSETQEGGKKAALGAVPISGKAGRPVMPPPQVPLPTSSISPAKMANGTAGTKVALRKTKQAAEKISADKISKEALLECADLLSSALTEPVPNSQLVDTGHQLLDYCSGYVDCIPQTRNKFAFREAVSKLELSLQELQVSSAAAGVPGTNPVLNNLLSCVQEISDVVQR

[4] = target: Ras-related protein Rab-6A (Homo sapiens, UniProt P20340)
Sequence of Ras-related protein Rab-6A (P20340 whole entry): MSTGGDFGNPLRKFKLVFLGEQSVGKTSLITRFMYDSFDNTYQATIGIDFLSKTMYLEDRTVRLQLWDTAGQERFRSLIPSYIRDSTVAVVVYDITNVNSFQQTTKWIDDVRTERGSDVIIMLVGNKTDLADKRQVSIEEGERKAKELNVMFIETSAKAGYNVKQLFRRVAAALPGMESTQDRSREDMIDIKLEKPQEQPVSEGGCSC

ADP/ATP translocase 3 = target: T3, ADP/ATP translocase 3 (Homo sapiens, UniProt P12236)
T3 sequence (P12236 whole entry): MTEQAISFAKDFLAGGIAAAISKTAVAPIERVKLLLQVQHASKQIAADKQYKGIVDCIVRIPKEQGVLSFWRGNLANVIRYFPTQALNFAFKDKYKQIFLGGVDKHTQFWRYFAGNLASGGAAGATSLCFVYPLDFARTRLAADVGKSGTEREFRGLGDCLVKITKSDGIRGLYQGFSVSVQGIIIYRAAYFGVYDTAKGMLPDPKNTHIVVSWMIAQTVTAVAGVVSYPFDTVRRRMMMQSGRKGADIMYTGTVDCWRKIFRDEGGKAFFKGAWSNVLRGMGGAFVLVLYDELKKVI

[5] = target: T4, Adenine phosphoribosyltransferase (Homo sapiens, UniProt P07741)
T4 sequence (P07741 whole entry): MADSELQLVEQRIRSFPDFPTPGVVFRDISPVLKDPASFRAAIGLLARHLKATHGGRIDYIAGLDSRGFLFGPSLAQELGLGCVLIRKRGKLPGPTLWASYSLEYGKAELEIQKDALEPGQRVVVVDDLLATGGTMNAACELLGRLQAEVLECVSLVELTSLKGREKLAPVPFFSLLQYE

Ephrin type-A receptor 2 = Ephrin type-A receptor 2 (Homo sapiens, UniProt P29317)
Sequence of Ephrin type-A receptor 2 (P29317 whole entry): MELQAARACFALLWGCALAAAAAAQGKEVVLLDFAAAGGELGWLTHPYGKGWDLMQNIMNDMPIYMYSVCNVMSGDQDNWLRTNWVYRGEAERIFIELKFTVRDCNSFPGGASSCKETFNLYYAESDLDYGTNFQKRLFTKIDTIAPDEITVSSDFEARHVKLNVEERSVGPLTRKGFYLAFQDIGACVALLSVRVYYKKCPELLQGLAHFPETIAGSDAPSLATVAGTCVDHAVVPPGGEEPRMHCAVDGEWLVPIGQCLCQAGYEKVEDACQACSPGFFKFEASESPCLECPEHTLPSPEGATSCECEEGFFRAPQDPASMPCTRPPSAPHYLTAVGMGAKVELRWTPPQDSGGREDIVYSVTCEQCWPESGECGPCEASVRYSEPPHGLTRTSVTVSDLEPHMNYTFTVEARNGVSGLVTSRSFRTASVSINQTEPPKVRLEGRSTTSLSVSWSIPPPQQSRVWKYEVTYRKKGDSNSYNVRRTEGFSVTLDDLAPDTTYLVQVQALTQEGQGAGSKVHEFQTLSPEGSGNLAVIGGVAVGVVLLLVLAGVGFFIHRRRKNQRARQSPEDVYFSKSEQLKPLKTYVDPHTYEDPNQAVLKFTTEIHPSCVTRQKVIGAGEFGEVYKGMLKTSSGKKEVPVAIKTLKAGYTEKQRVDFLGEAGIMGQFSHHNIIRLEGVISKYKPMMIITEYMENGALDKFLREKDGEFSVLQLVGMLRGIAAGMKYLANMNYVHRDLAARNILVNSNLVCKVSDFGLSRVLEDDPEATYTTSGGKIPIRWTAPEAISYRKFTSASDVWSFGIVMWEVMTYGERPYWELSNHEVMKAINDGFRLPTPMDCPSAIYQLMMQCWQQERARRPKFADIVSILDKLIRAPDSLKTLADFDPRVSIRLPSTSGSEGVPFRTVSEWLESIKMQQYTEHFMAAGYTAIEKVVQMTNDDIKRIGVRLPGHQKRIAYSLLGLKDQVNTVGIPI

[6] = target: T5, Serine/threonine-protein kinase D2 (Homo sapiens, UniProt Q9BZL6)
T5 sequence (Q9BZL6 whole entry): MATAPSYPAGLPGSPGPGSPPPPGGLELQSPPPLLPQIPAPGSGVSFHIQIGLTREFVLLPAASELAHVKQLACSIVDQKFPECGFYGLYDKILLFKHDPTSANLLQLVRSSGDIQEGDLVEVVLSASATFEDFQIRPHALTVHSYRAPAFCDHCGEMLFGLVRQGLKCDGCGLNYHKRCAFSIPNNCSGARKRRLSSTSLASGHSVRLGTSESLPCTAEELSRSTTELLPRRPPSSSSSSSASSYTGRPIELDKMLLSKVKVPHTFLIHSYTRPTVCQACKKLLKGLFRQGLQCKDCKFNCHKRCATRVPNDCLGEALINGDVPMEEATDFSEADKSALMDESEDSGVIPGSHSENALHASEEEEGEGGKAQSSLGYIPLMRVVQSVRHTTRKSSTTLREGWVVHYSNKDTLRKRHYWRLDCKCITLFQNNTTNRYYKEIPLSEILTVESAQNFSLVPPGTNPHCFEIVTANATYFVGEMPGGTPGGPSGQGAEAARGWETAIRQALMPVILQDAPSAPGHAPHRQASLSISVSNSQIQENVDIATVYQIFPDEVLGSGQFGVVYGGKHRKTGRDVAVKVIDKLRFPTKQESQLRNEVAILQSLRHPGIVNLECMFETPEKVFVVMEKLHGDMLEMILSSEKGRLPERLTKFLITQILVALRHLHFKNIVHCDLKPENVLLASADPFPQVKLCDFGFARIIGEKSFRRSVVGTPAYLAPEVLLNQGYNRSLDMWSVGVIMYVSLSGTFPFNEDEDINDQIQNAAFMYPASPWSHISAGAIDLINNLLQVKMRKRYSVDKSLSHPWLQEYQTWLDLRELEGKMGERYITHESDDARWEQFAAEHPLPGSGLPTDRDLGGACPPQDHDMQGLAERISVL

Obg-like ATPase 1 = Obg-like ATPase 1 (Homo sapiens, UniProt Q9NTK5)
Sequence of Obg-like ATPase 1 (Q9NTK5 whole entry, looked up): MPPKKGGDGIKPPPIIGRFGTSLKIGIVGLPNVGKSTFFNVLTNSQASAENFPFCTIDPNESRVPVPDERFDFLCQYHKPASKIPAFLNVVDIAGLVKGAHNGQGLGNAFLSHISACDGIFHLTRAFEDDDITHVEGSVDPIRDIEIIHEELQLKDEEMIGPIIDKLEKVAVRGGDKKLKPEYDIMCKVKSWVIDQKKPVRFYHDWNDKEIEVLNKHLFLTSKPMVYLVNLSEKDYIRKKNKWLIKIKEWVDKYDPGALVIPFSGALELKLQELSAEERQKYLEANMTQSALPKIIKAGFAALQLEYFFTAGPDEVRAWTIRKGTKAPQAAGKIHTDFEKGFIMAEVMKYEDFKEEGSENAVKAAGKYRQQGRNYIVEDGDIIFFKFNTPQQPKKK

Measured: Kd
Also: in the data inactive means no Kd found up to 30 µM.

C[C@]1(O)C[C@@H](c2nc(-c3ccc4ccc(-c5ccccc5)nc4c3)c3c(N)nccn32)C1 [LINSITINIB]
inactive: [1] > 30 µM | [2] > 30 µM | [3] > 30 µM | [4] > 30 µM | ADP/ATP translocase 3 > 30 µM

O=C(O)c1ccc2c(c1)nc(Nc1cccc(Cl)c1)c1ccncc12 [SILMITASERTIB]
inactive: [1] > 30 µM | [5] > 30 µM | [3] > 30 µM | Ephrin type-A receptor 2 > 30 µM | [6] > 30 µM | [4] > 30 µM | ADP/ATP translocase 3 > 30 µM
active: [2] 0.884 µM

O[C@H]1CC[C@H](Nc2ncc3nc(Nc4c(F)cc(F)cc4F)n([C@H]4CCOC4)c3n2)CC1 [TANZISERTIB]
inactive: [1] > 30 µM | [5] > 30 µM | [2] > 30 µM | [3] > 30 µM | Ephrin type-A receptor 2 > 30 µM | [6] > 30 µM | [4] > 30 µM | ADP/ATP translocase 3 > 30 µM

CN1CCN(c2nc(C3=C(c4c[nH]c5ccccc45)C(=O)NC3=O)c3ccccc3n2)CC1 [SOTRASTAURIN]
6.69 µM: [2]
inactive: [1] > 30 µM | [3] > 30 µM | Ephrin type-A receptor 2 > 30 µM | [6] > 30 µM | [4] > 30 µM | ADP/ATP translocase 3 > 30 µM

Cn1cnc2c(F)c(Nc3ccc(Br)cc3Cl)c(C(=O)NOCCO)cc21 [SELUMETINIB]
inactive: [5] > 30 µM | [4] > 30 µM | ADP/ATP translocase 3 > 30 µM | Obg-like ATPase 1 > 30 µM

O=S(=O)(c1cccc2cnccc12)N1CCCNCC1 [FASUDIL]
inactive: [5] > 30 µM | [3] > 30 µM | [4] > 30 µM | ADP/ATP translocase 3 > 30 µM | Obg-like ATPase 1 > 30 µM
active: [6] 6.42 µM

COc1cc2c(N3CCN(C(=O)Nc4ccc(OC(C)C)cc4)CC3)ncnc2cc1OCCCN1CCCCC1 [TANDUTINIB]
inactive: [5] > 30 µM | [4] > 30 µM | ADP/ATP translocase 3 > 30 µM | Obg-like ATPase 1 > 30 µM

COc1cc2c(Oc3ccc4[nH]c(C)cc4c3F)ncnc2cc1OCCCN1CCCC1 [CEDIRANIB]
inactive: [5] > 30 µM | [4] > 30 µM | ADP/ATP translocase 3 > 30 µM | Obg-like ATPase 1 > 30 µM

CC(C)(O)CC(=O)NCCn1ccc2ncnc(Nc3ccc(Oc4cccc(C(F)(F)F)c4)c(Cl)c3)c21 [TAK-285]
inactive: [1] > 30 µM | [2] > 30 µM | [3] > 30 µM | Ephrin type-A receptor 2 > 30 µM | [4] > 30 µM | ADP/ATP translocase 3 > 30 µM

CC[C@@](C)(Nc1ccnc(-c2c[nH]c3ncccc23)n1)C(=O)NCC(F)(F)F [DECERNOTINIB]
active: [3] 7.07 µM
inactive: [1] > 30 µM | [5] > 30 µM | [2] > 30 µM | Ephrin type-A receptor 2 > 30 µM | [6] > 30 µM | [4] > 30 µM | ADP/ATP translocase 3 > 30 µM

CC1(C)CNc2cc(NC(=O)c3cccnc3NCc3ccncc3)ccc21 [MOTESANIB]
inactive: [5] > 30 µM | [4] > 30 µM | ADP/ATP translocase 3 > 30 µM | Obg-like ATPase 1 > 30 µM

CN(C)C/C=C/C(=O)Nc1cc2c(Nc3ccc(F)c(Cl)c3)ncnc2cc1O[C@H]1CCOC1 [AFATINIB]
inactive: [5] > 30 µM | [4] > 30 µM | ADP/ATP translocase 3 > 30 µM | Obg-like ATPase 1 > 30 µM

O=c1[nH]c([C@@H]2CCCN2)nc2c1oc1ccc(Cl)cc12
inactive: [1] > 30 µM | [3] > 30 µM | Ephrin type-A receptor 2 > 30 µM | [6] > 30 µM | ADP/ATP translocase 3 > 30 µM

C[C@@]1(C(=O)Nc2ccc(F)nc2)CCCN1c1nc(Nc2cc(C3CC3)n[nH]2)c2cccn2n1 [BMS-754807]
inactive: [5] > 30 µM | [4] > 30 µM | ADP/ATP translocase 3 > 30 µM | Obg-like ATPase 1 > 30 µM

CCc1nc(C(N)=O)c(Nc2ccc(N3CCC(N4CCN(C)CC4)CC3)c(OC)c2)nc1NC1CCOCC1 [GILTERITINIB]
inactive: [2] > 30 µM | [3] > 30 µM | Ephrin type-A receptor 2 > 30 µM | [6] > 30 µM | [4] > 30 µM
0.495 µM: ADP/ATP translocase 3

CCN1CCN(Cc2ccc(Nc3ncc(F)c(-c4cc(F)c5nc(C)n(C(C)C)c5c4)n3)nc2)CC1 [ABEMACICLIB]
inactive: [1] > 30 µM | [3] > 30 µM | Ephrin type-A receptor 2 > 30 µM | [4] > 30 µM | ADP/ATP translocase 3 > 30 µM
active: [2] 0.053 µM | [6] 2.06 µM

COc1cccc(Nc2ncnn3ccc(CN4CC[C@@H](N)[C@H](O)C4)c23)c1 [BMS-690514]
active: [3] 0.04 µM | [6] 0.14 µM
inactive: [1] > 30 µM | [5] > 30 µM | [2] > 30 µM | Ephrin type-A receptor 2 > 30 µM | ADP/ATP translocase 3 > 30 µM

O=C(Nc1ccc(OC(F)(F)F)cc1)c1sccc1NCc1ccnc2ccccc12 [OSI-930]
inactive: [1] > 30 µM | [5] > 30 µM | [2] > 30 µM | [3] > 30 µM | Ephrin type-A receptor 2 > 30 µM | [6] > 30 µM | [4] > 30 µM | ADP/ATP translocase 3 > 30 µM

C=CCN(/C=C1/C(=O)O[C@H](COC)[C@@]2(C)C1=C(O)C(=O)C1=C2[C@H](OC(C)=O)C[C@]2(C)C(=O)CC[C@@H]12)CC=C [SONOLISIB]
inactive: [1] > 30 µM | [2] > 30 µM | [3] > 30 µM | Ephrin type-A receptor 2 > 30 µM | [6] > 30 µM | ADP/ATP translocase 3 > 30 µM

FC(F)(F)c1ccc(CNc2ccc(Cc3c[nH]c4ncc(Cl)cc34)cn2)cn1 [PEXIDARTINIB]
inactive: [1] > 30 µM | [2] > 30 µM | [3] > 30 µM | Ephrin type-A receptor 2 > 30 µM | [6] > 30 µM | [4] > 30 µM | ADP/ATP translocase 3 > 30 µM
